Measurements as given in US20060111305A1, “Metabolites of certain [1,4]diazepino[6,7,1-ij]quinoline derivatives and methods of preparation and use thereof” (Wyeth, priority 2004, published 2006).

Key:
[1] = Incubation of [14C]DCDQ with mouse liver microsomes; type: in vitro ADME, CD-1 mice
Protocol: [^14C]DCDQ was mixed with non-radiolabeled DCDQ (1:3 or 1:5) in the incubations. Microsomal incubations consisted of [^14C]DCDQ, magnesium chloride (10 mM) and liver microsomes incubated in 0.5 mL of 0.1 M potassium phosphate buffer, pH 7.4. [^14C]DCDQ (20 μL) in water was added to the incubation tubes containing buffer, magnesium chloride solution and microsomes. After mixing, the tubes were pre-incubated for 2 minutes in a shaking water bath at 37° C. The reactions were initiated by the addition of UDPGA or the NADPH regenerating system. UDPGA was added to incubations as a 50 μL aliquot of a 20 mM solution in water, to give a final concentration of 2 mM. An NADPH regenerating system (30 μL) was added to incubations to evaluate CYP450-mediated metabolism. The NADPH regenerating system consisted of glucose-6-phosphate (2 mg/mL), glucose-6-phosphate dehydrogenase (0.8 units/mL) and NADP^+ (2 mg/mL). Control incubations were conducted under the same conditions, but without the NADPH generating system, UDPGA or microsomes. All incubations were performed in duplicate. Incubations were stopped by the addition of 0.5 mL ice-cold methanol. Samples were vortex-mixed. Denatured proteins were separated by centrifugation at 4300 rpm and 4° C. for 10 minutes (Model T21 super centrifuge, Sorvall). The protein pellets were extracted with 0.5 mL of methanol. The supernatant was combined for each sample, mixed and evaporated to a volume of about 0.3 mL under a nitrogen stream in a Zymark TurboVap LV evaporator (Caliper Life Science, Hopkinton, Mass.). The concentrated sample was centrifuged and aliquots were radioassayed and analyzed by HPLC. This method recovered an average of 92.1% of the radioactivity from the reaction mixture.
To evaluate species differences in cytochrome P450- and UGT-mediated metabolism, [^14C]DCDQ was incubated for 20 minutes with 0.5 mg/mL liver microsomal proteins from mice, rats, dogs or humans in the presence of the NADPH regenerating system or UDPGA. The assay conditions were the same as described above, and DCDQ concentrations were 12 μM and 56 μM for cytochrome P450- and UGT-mediated metabolism, respectively.
A Waters model 2690 HPLC system (Waters Corp., Milford, Mass.) with a built-in autosampler was used for analysis. Separations were accomplished on a Phenomenex Luna C18(2) column (2×150 mm, 5 μm) (Phenomenex, Torrance, Calif.) coupled with a filter (4×2 mm) cartridge. A variable wavelength UV detector set to monitor 250 nm and Flo-One β Model A525 radioactivity flow detector (Perkin Elmer) with a 250 μL LQTR flow cell were used for data acquisition. The flow rate of Ultima Flow M scintillation fluid was 1 mL/min, providing a mixing ratio of scintillation cocktail to mobile phase of 5:1. […]

[2] = Metabolites of DCDQ generated by liver microsomes and hepatocytes, LC/MS characterization (Table 6); type: in vitro ADME; settings: MM mouse, RM rat, DM dog, HM human liver microsomes; HH human hepatocytes
Text: An Agilent Model 1100 HPLC system (Agilent Technologies, Palo Alto, Calif.) including an autosampler and diode array UV detector was used for LC/MS analysis. The UV detector was set to monitor 200 to 400 nm. For selected LC/MS analysis, radiochromatograms were acquired using a β-Ram model 3 radioactivity flow detector (IN/US Systems Inc., Tampa, Fla.) equipped with a solid scintillant flow cell. Separations were accomplished on a Phenomenex Luna C18(2) column (2×150 mm, 5 μm) under the same conditions as described above.
The mass spectrometer used for metabolite characterization was a Micromass Q-TOF-2 quadrupole time-of-flight hybrid mass spectrometer ([…].). The mass spectrometer was equipped with an electrospray ionization (ESI) interface and operated in the positive ionization mode. Collision energy settings of 5 and 30 eV were used for full MS and MS/MS scans, respectively. Settings for the mass spectrometer are listed below.
Mass spectra were obtained by LC/MS and LC/MS/MS analysis for DCDQ and its metabolites.

[3] = Metabolite profiles of DCDQ in human plasma and urine by LC/MS (Table 33); type: in vivo, healthy human subjects; design: key to Matrix (in which DCDQ / metabolite was characterized by LC/MS): P = plasma; U = urine; settings: for Matrix (in which DCDQ / metabolite was characterized by LC/MS): human plasma and urine, healthy subjects receiving DCDQ
Protocol: Drug administration and specimen collection were performed in a randomized, double-blinded, placebo-controlled, ascending single dose study of the safety, tolerability, pharmacokinetics, and pharmacodynamics of DCDQ administered orally to healthy subjects and subjects with schizophrenia and schizoaffective disorder. The specimens were stored at approximately −70° C. until analysis for metabolite profiles and for ratios of carbamoyl glucuronide (M6) to DCDQ.
Two subjects with medium and high exposure to DCDQ in the 25 mg multiple ascending dose study were also analyzed by LC/MS for metabolite profiles. The 8 hr plasma samples collected on day 1 and day 14 from subjects 9 and 41 were processed and analyzed as described below. No internal standard was added to the samples analyzed for metabolite profiles.
LC/MS System 1 was used for analysis of plasma and urine samples for metabolite characterization. The HPLC equipment used with this LC/MS System consisted of an Agilent Model 1100 HPLC system (Agilent Technologies, Palo Alto, Calif.) including an autosampler, binary pump and diode array UV detector. The UV detector was set to monitor 210 to 350 nm. The HPLC mobile phase consisted of 10 mM ammonium acetate, pH 4.5 (A) and methanol (B), and was delivered at 0.2 mL/min. The linear mobile phase gradient (HPLC Gradient 1) is shown below. During LC/MS sample analysis, up to 6 min of the initial flow was diverted away from the mass spectrometer prior to evaluation of metabolites.
The mass spectrometer used for metabolite characterization with LC/MS System 1 was a Finnigan LCQ-Deca ion trap mass spectrometer (Thermo Electron, San Jose, Calif.). This mass spectrometer was equipped with an electrospray ionization (ESI) interface and operated in the positive ionization mode. Settings for the LCQ mass spectrometer are listed below.
LC/MS System 2 was used to provide additional MS/MS data for characterization of DCDQ metabolites in urine. The HPLC equipment used with LC/MS System 2 consisted of a Waters model 2695 HPLC system (Waters Corp., Milford, Mass.). It was equipped with a built-in autosampler and a model 996 diode array UV detector. The UV detector was set to monitor 210-400 nm. The HPLC column, mobile phases, flow rate, diversion of flow away from the mass spectrometer and gradient were as described above for LC/MS System 1. The column temperature was 25° C.
The mass spectrometer used for metabolite characterization with LC/MS System 2 was a Micromass Quattro Micro triple quadrupole mass spectrometer (Waters Corp.). This mass spectrometer was equipped with an electrospray interface and operated in the positive ionization mode. Settings for this mass spectrometer are listed below.

[4] = NADPH regenerating system, 12 μM DCDQ, 20 min

## [O-][N+]12CCN=Cc3cccc(c31)[C@H]1CCC[C@H]1C2 (stereo partly drawn) [Metabolite M5, DCDQ imine N-oxide]
[1]; [4]
  metabolite detected in microsomal incubation: not mouse or rat
[2]
  Source: DM, HM, HH
[3]
  Matrix (in which DCDQ / metabolite was characterized by LC/MS): P

## O=C(O)[C@H]1O[C@@H](OC(=O)N2CCN3C[C@@H]4CCC[C@@H]4c4cccc(c43)C2)[C@H](O)[C@@H](O)[C@@H]1O [Metabolite M6, carbamoyl glucuronide of DCDQ]
[1]; UDPGA, 56 μM DCDQ
  metabolite detected in microsomal incubation: not mouse or rat
[2]
  Source: DM, HM, HH
[3]; all dose groups, single and multiple dose studies
  relative abundance in human plasma: predominant drug-related component
[3]
  Matrix (in which DCDQ / metabolite was characterized by LC/MS): P, U
[3]; in vivo
  relative abundance in human urine: predominant drug-related component

## c1cc2c3c(c1)[C@H]1CCC[C@H]1CN3CCNC2 [DCDQ, (9aR,12aS)-4,5,6,7,9,9a,10,11,12,12a-decahydro-cyclopenta[c][1,4]diazepine[6,7,1-ij]quinoline, reference compound]
[2]
  Source: MM, RM, DM, HM, HH
[3]
  Matrix (in which DCDQ / metabolite was characterized by LC/MS): P, U

## OC1[C@@H]2CCC[C@@H]2c2cccc3c2N1CCNC3 (stereo partly drawn) [Metabolite M2, hydroxy DCDQ]
[1]; [4]
  metabolite detected in microsomal incubation: only metabolite detected
[2]
  Source: MM, RM, DM, HM, HH

## OC1CN2C[C@@H]3CCC[C@@H]3c3cccc(c32)CN1 (stereo partly drawn) [Metabolite M1, hydroxy DCDQ]
[1]; [4]
  metabolite detected in microsomal incubation: not detected
[2]
  Source: HM, HH
[3]
  Matrix (in which DCDQ / metabolite was characterized by LC/MS): P, U
